# Values quoted from earlier work as cited in US9308182B2 (TEVA PHARMACEUTICAL INDUSTRIES, LTD., priority 2012, dated 2016).
# Where two headings read alike, the source gives them in different places.
# Assays:
# [1] = cited from earlier work
# MAO = conditions: metabolite of rasagiline; cited from earlier work
structure (smiles),measurement,setting,value
"NCCc1ccc(O)cc1 [Tyramine, tyramine]",increase in blood pressure,[1]; 1 mg injected into the portal vein,18 mmHg
same,increase in blood pressure,[1]; 1 mg injected systematically,59 mmHg
NC1CCc2ccccc21 (stereo not shown) [aminoindan],MAO inhibition,MAO,does not inhibit MAO
O=C(CCNNC(=O)c1ccncc1)NCc1ccccc1 [nialamide],effect on blood pressure response to tyramine,"[1]; non specific MAO inhibitor, all the treatment groups",severe increase in blood pressure
